The Cmax is the highest concentration seen after dosing. One may read the Tmax as the time from dosing to the highest level. Broadly, the half-life is the time needed for the level to fall by half in the phase considered. By AUC(0-t) is commonly meant the area under the concentration-time curve up to a stated or last time point.

“And” between values parts separate entries of the source, which are not always exact repeats. Equal values may be shown once. “Also recorded” adds a separate entry of the source.

Data set [1] relates to Mycobacterium tuberculosis (H37Rv). As to the kind of experiment: Whole-blood bactericidal activity (WBA) assay, ex vivo, blood of dosed healthy volunteers. It is filed as cell-based. The conditions noted are these: for WBAcum(0–8) / WBAmax: mean (SD); for bactericidal activity in the WBA assay (in words): drug alone, single oral dose, over 8 hours post-dose.
Data set [2] can be described thus: Plasma pharmacokinetics in healthy volunteers (LC-MS/MS, non-compartmental analysis). As to conditions: for Cmax / Tmax / half-life / AUC(0-t): human, plasma, po; for Tmax: median (min, max); for half-life: mean (SD); for AUC(0-t): AUC(0–8).
A short description of data set [3]: clinical. The conditions noted are these: human, in vivo, po, 10 mg/kg.
Where [4] appears, read: Celecoxib alone 400 mg single oral dose, PZA group, n = 9.
The mark [5] stands for this setting: Celecoxib alone 400 mg single oral dose, RIF group, n = 9.
Setting [6] is: celecoxib levels in plasma, PZA + C, celecoxib 400 mg with pyrazinamide 25 mg/kg oral, geometric mean (min, max).
The mark [7] stands for this setting: celecoxib levels in plasma, RIF + C, celecoxib 400 mg with rifampicin 10 mg/kg oral, geometric mean (min, max).
Setting [8] is: TB drug + Celecoxib: pyrazinamide 25 mg/kg with celecoxib 400 mg oral, PZA group, n = 9.
[9] abbreviates: TB drug alone: pyrazinamide 25 mg/kg single oral dose, PZA group, n = 9.
Where [10] appears, read: TB drug alone: pyrazinamide 25 mg/kg single oral dose, PZA group, n = 9, listed as PZA.
Setting [11] is: 25 mg/kg, pyrazinamide levels in plasma, PZA alone, 25 mg/kg single oral dose, geometric mean (min, max).
Setting [12] is: pyrazinamide levels in plasma, PZA + C, pyrazinamide 25 mg/kg with celecoxib 400 mg oral, geometric mean (min, max).
The mark [13] stands for this setting: TB drug + Celecoxib: rifampicin 10 mg/kg with celecoxib 400 mg oral, RIF group, n = 7.
The mark [14] stands for this setting: TB drug alone: rifampicin 10 mg/kg single oral dose, RIF group, n = 9.
The mark [15] stands for this setting: TB drug alone: rifampicin 10 mg/kg single oral dose, RIF group, n = 9, listed as RIF.

For the compound `Cc1ccc(-c2cc(C(F)(F)F)nn2-c2ccc(S(N)(=O)=O)cc2)cc1` [Celecoxib, celecoxib], the “WBAcum(0–8)” value is 0.02 (0.01) ΔlogCFU in data set [1] (setting [4]); 0.03 ± 0.01 ΔlogCFU and 0.03 (0.01) ΔlogCFU in data set [1] (Celecoxib alone 400 mg single oral dose, RIF + PZA groups combined, n = 18, cumulative over 8 h post-dose); 0.03 (0.01) ΔlogCFU in data set [1] (setting [5]). For the same compound, the WBAmax is 0.12 (0.10) ΔlogCFU in data set [1] (setting [4]); 0.14 (0.10) ΔlogCFU in data set [1] (Celecoxib alone 400 mg single oral dose, RIF + PZA groups combined, n = 18, up to 8 h post-dose, negative = killing); 0.17 (0.09) ΔlogCFU in data set [1] (setting [5]). For the same compound, the “bactericidal activity in the WBA assay (in words)” value (“bactericidal activity” for short) in data set [1] is “no bactericidal activity; also recorded: no activity alone”. Moreover, the “effect of celecoxib on rifampicin or pyrazinamide drug levels (in words)” value in data set [2] (celecoxib 400 mg co-administered with rifampicin 10 mg/kg or pyrazinamide 25 mg/kg) was “no significant effect”. Besides, the “Cmax and AUC(0–8hrs) of celecoxib when co-administered with the TB drugs (in words)” value in data set [2] (celecoxib 400 mg with rifampicin or pyrazinamide versus alone) is given as “non-significant trend towards lower”. Further, the “AUC(0–8)” value in data set [2] (celecoxib levels in plasma, C alone, celecoxib 400 mg single oral dose, geometric mean (min, max)) is recorded as 5.97 (2.91, 10.25) h*mg/L. The Cmax in data set [2] (400 mg, celecoxib levels in plasma, C alone, celecoxib 400 mg single oral dose, geometric mean (min, max)) was found to be 1140 ng/mL; in data set [2] (setting [6]) it was 760 ng/mL; in data set [2] (setting [7]), 890 ng/mL. For the same compound, the time to peak (Tmax) came out at 2 h in data set [2] (400 mg, celecoxib levels in plasma, C alone, celecoxib 400 mg single oral dose); 3 h in data set [2] (celecoxib levels in plasma, PZA + C, celecoxib 400 mg with pyrazinamide 25 mg/kg oral); 2 h in data set [2] (celecoxib levels in plasma, RIF + C, celecoxib 400 mg with rifampicin 10 mg/kg oral). Besides, the half-life was 4.48 h in data set [2] (400 mg, t1/2, celecoxib levels in plasma, C alone, celecoxib 400 mg single oral dose); 7.28 h in data set [2] (t1/2, celecoxib levels in plasma, PZA + C, celecoxib 400 mg with pyrazinamide 25 mg/kg oral, includes 24 hour data where available); 6.65 h in data set [2] (t1/2, celecoxib levels in plasma, RIF + C, celecoxib 400 mg with rifampicin 10 mg/kg oral, includes 24 hour data where available). The AUC(0-t) in data set [2] (setting [6]) is 4230 ng·h/mL; in data set [2] (setting [7]) it was 4530 ng·h/mL.

`NC(=O)c1cnccn1` [Pyrazinamide, pyrazinamide]: the “WBAcum(0–8), mean difference for TB drug with and without celecoxib (95% CI)” value in data set [1] (PZA group, paired data n = 9) is reported as −0.01 (−0.03, 0.00) ΔlogCFU. In addition, in data set [1] (PZA group, paired data n = 9), the “WBAmax, mean difference for TB drug with and without celecoxib (95% CI)” value was −0.09 (−0.22, 0.04) ΔlogCFU. In addition, the “WBAcum(0–8)” value in data set [1] (setting [8]) is on record as 0.00 (0.01) ΔlogCFU; in data set [1] (setting [9]), 0.01 ± 0.03 ΔlogCFU; in data set [1] (setting [10]), 0.01 (0.03) ΔlogCFU. The WBAmax in data set [1] (setting [8]) is on record as −0.12 (0.10) ΔlogCFU; in data set [1] (setting [9]) it was −0.03 ± 0.23 ΔlogCFU; in data set [1] (setting [10]), −0.03 (0.23) ΔlogCFU. In addition, the “bactericidal activity” value in data set [1] is “no bactericidal activity; also recorded: appeared to be bacteriostatic”. Moreover, the results for the AUC(0-t) in data set [2] (setting [11]) and in data set [2] (setting [12]) were 207000 ng·h/mL and 212000 ng·h/mL, respectively. Also, the Cmax in data set [2] (setting [11]) stood at 35500 ng/mL; in data set [2] (setting [12]), 35100 ng/mL. Further, the Tmax in data set [2] (25 mg/kg, pyrazinamide levels in plasma, PZA alone, 25 mg/kg single oral dose) was determined as 1 h; in data set [2] (pyrazinamide levels in plasma, PZA + C, pyrazinamide 25 mg/kg with celecoxib 400 mg oral), 1 h. Further, the half-life is 11.4 h in data set [2] (25 mg/kg, t1/2, pyrazinamide levels in plasma, PZA alone, 25 mg/kg single oral dose) and 11.2 h in data set [2] (t1/2, pyrazinamide levels in plasma, PZA + C, pyrazinamide 25 mg/kg with celecoxib 400 mg oral, includes 24 hour data where available).

In the case of `CO[C@H]1/C=C/O[C@@]2(C)Oc3c(C)c(O)c4c(O)c(c(/C=N/N5CCN(C)CC5)c(O)c4c3C2=O)NC(=O)/C(C)=C\C=C\[C@H](C)[C@H](O)[C@@H](C)[C@@H](O)[C@@H](C)[C@H](OC(C)=O)[C@@H]1C` [Rifampicin, rifampicin], in data set [1] (RIF group, paired data n = 7), the “WBAcum(0–8), mean difference for TB drug with and without celecoxib (95% CI)” value is given as 0.00 (−0.02, 0.02) ΔlogCFU; the “WBAmax, mean difference for TB drug with and without celecoxib (95% CI)” value was −0.03 (−0.25, 0.18) ΔlogCFU. Besides, in data set [1] (setting [13]), the “WBAcum(0–8)” value was −0.22 (0.03) ΔlogCFU and the WBAmax is reported as −2.51 (0.23) ΔlogCFU. Also, in data set [1] (setting [14]), the “WBAcum(0–8)” value is −0.22 ± 0.02 ΔlogCFU and the WBAmax is −2.48 ± 0.24 ΔlogCFU. Also, in data set [1] (setting [15]), the “WBAcum(0–8)” value is reported as −0.22 (0.02) ΔlogCFU and the WBAmax is given as −2.48 (0.24) ΔlogCFU. Further, in data set [1], the “bactericidal activity” value is given as “strong bactericidal activity”. The AUC(0-t) in data set [3] (AUC(0–8)) was 92300 ng·h/mL. The Cmax in data set [3] (Cmax) stood at 19300 ng/mL. Besides, in data set [3] (Tmax), the Tmax was 1 h.
